According to ChEMBL document CHEMBL1201862, “PubChem BioAssay data set” (2004):
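Test compounds were applied to cells in 96-well plates for 48 hours at 5 doses. GI50 marks 50% less growth.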 The source made the active and inactive calls. Cut-off read from the data, not from the text of the source: active = GI50 up to about 1.1 µM and inactive = higher.

Key:
Assay in all cases: growth of human tumour cells (NCI), 48 h
A549 = test system: A549
SK-OV-3 = test system: SK-OV-3
RXF 393 = test system: RXF 393
UACC-62 = test system: UACC-62
CCRF-CEM = test system: CCRF-CEM
SF-295 = test system: SF-295
HCT-116 = test system: HCT-116
DMS-273 = test system: DMS-273
ACHN = test system: ACHN
786-0 = test system: 786-0
NCI-H23 = test system: NCI-H23
M19-MEL = test system: M19-MEL
UO-31 = test system: UO-31
HCT-15 = test system: HCT-15
HOP-62 = test system: HOP-62
SK-MEL-28 = test system: SK-MEL-28
Malme-3M = test system: Malme-3M
OVCAR-8 = test system: OVCAR-8
DMS-114 = test system: DMS-114
SN12C = test system: SN12C
DLD-1 = test system: DLD-1
NCI-H522 = test system: NCI-H522
KM12 = test system: KM12
IGROV-1 = test system: IGROV-1
SW-620 = test system: SW-620
RPMI-8226 = test system: RPMI-8226
SNB-75 = test system: SNB-75
TK-10 = test system: TK-10
EKVX = test system: EKVX
HOP-18 = test system: HOP-18
LOX IMVI = test system: LOX IMVI
NCI-H226 = test system: NCI-H226
M14 = test system: M14
SF-539 = test system: SF-539
U-251 = test system: U-251
HL-60 = test system: HL-60
UACC-257 = test system: UACC-257
COLO 205 = test system: COLO 205
KM-20L2 = test system: KM-20L2
K562 = test system: K562
OVCAR-3 = test system: OVCAR-3
HT-29 = test system: HT-29
NCI-H460 = test system: NCI-H460
SK-MEL-5 = test system: SK-MEL-5
MOLT-4 = test system: MOLT-4
SNB-19 = test system: SNB-19
BT-549 = test system: BT-549
SR = test system: SR
MCF7 = test system: MCF7
NCI/ADR-RES = test system: NCI/ADR-RES
LXFL 529 = test system: LXFL 529
HCC 2998 = test system: HCC 2998
OVCAR-4 = test system: OVCAR-4
MDA-MB-231 = test system: MDA-MB-231
HOP-92 = test system: HOP-92
Hs-578T = test system: Hs-578T
A498 = test system: A498
SF-268 = test system: SF-268
MDA-MB-435 = test system: MDA-MB-435
PC-3 = test system: PC-3
OVCAR-5 = test system: OVCAR-5
MDA-N = test system: MDA-N
DU-145 = test system: DU-145
SK-MEL-2 = test system: SK-MEL-2

Q: What does the source list for `C[N+](C)(C)CC1CCCCC1=O` (centres undefined)?
A: GI50 (A549): > 100 µM (inactive); GI50 (SK-OV-3): > 100 µM (inactive); GI50 (RXF 393): 18.4 µM (inactive); GI50 (UACC-62): 18.9 µM (inactive); GI50 (CCRF-CEM): 4.56 µM (inactive); GI50 (SF-295): > 100 µM (inactive); GI50 (HCT-116): 17.7 µM (inactive); GI50 (DMS-273): 71.3 µM (inactive); GI50 (ACHN): 16.4 µM (inactive); GI50 (786-0): > 100 µM (inactive); GI50 (NCI-H23): 22.5 µM (inactive); GI50 (M19-MEL): 18.5 µM (inactive); GI50 (UO-31): > 100 µM (inactive); GI50 (HCT-15): 14.1 µM; GI50 (HOP-62): > 100 µM (inactive); GI50 (SK-MEL-28): 17.3 µM (inactive); GI50 (Malme-3M): 19.6 µM (inactive); GI50 (OVCAR-8): 19.2 µM (inactive); GI50 (DMS-114): 36.9 µM (inactive); GI50 (SN12C): > 100 µM (inactive); GI50 (DLD-1): 19.8 µM (inactive); GI50 (NCI-H522): 19.1 µM (inactive); GI50 (KM12): 58.2 µM (inactive); GI50 (IGROV-1): > 100 µM (inactive); GI50 (SW-620): 8.49 µM (inactive); GI50 (RPMI-8226): 9.06 µM (inactive); GI50 (SNB-75): 20.5 µM (inactive); GI50 (TK-10): 37.1 µM (inactive); GI50 (EKVX): 19.9 µM (inactive); GI50 (HOP-18): 16.3 µM (inactive); GI50 (LOX IMVI): 14 µM (inactive); GI50 (NCI-H226): > 100 µM (inactive); GI50 (M14): 16.6 µM (inactive); GI50 (SF-539): > 100 µM (inactive); GI50 (U-251): > 100 µM (inactive); GI50 (HL-60): 13.9 µM (inactive); GI50 (UACC-257): 14.3 µM (inactive); GI50 (COLO 205): 22.6 µM (inactive); GI50 (KM-20L2): 2 µM (inactive); GI50 (K562): 8.63 µM (inactive); GI50 (OVCAR-3): 19.1 µM (inactive); GI50 (HT-29): 19.6 µM (inactive); GI50 (NCI-H460): 55.3 µM (inactive); GI50 (SK-MEL-5): 25.2 µM (inactive); GI50 (MOLT-4): 12.4 µM (inactive); GI50 (SNB-19): > 100 µM (inactive)

Q: How did the GI50 (BT-549) turn out when `CCOC(=O)C1=C(N)N(c2ccccc2)/C(=C2\SC(=S)N(c3ccc(C)cc3)C2=O)S1` was run?
A: 90.2 µM (inactive)

Q: What about the GI50 (SR) of the same molecule?
A: > 100 µM (inactive)

Q: And the GI50 (A549)?
A: 52.1 µM (inactive)

Q: And the GI50 (SK-OV-3)?
A: 26.9 µM (inactive)

Q: And the GI50 (MCF7)?
A: 87.5 µM (inactive)

Q: What about the GI50 (NCI/ADR-RES) of the same molecule?
A: 50.5 µM (inactive)

Q: What about the GI50 (UACC-62) of the same molecule?
A: 88.7 µM (inactive)

Q: And the GI50 (CCRF-CEM)?
A: 54.2 µM (inactive)

Q: And the GI50 (SF-295)?
A: 21 µM (inactive)

Q: What about the GI50 (HCT-116) of the same molecule?
A: 63.2 µM (inactive)

Q: What about the GI50 (ACHN) of the same molecule?
A: 76 µM (inactive)

Q: And the GI50 (LXFL 529)?
A: 59.2 µM (inactive)

Q: And the GI50 (786-0)?
A: 29.3 µM (inactive)

Q: What about the GI50 (HCC 2998) of the same molecule?
A: 50.1 µM (inactive)

Q: What about the GI50 (NCI-H23) of the same molecule?
A: 47.4 µM (inactive)

Q: And the GI50 (M19-MEL)?
A: > 100 µM (inactive)

Q: And the GI50 (UO-31)?
A: 68.2 µM (inactive)

Q: And the GI50 (HCT-15)?
A: > 100 µM

Q: What about the GI50 (HOP-62) of the same molecule?
A: 22.2 µM (inactive)

Q: What about the GI50 (OVCAR-4) of the same molecule?
A: 18 µM (inactive)

Q: And the GI50 (SK-MEL-28)?
A: 23.4 µM (inactive)

Q: And the GI50 (Malme-3M)?
A: 51.1 µM (inactive)

Q: And the GI50 (OVCAR-8)?
A: 33.3 µM (inactive)

Q: And the GI50 (MDA-MB-231)?
A: 22.6 µM (inactive)

Q: And the GI50 (SN12C)?
A: 35.8 µM (inactive)

Q: And the GI50 (NCI-H522)?
A: 34.3 µM (inactive)

Q: And the GI50 (KM12)?
A: > 100 µM (inactive)

Q: What about the GI50 (IGROV-1) of the same molecule?
A: > 100 µM (inactive)

Q: What about the GI50 (SW-620) of the same molecule?
A: > 100 µM (inactive)

Q: And the GI50 (HOP-92)?
A: 30.5 µM (inactive)

Q: What about the GI50 (RPMI-8226) of the same molecule?
A: 93.1 µM (inactive)

Q: What about the GI50 (SNB-75) of the same molecule?
A: 3.99 µM (inactive)

Q: And the GI50 (Hs-578T)?
A: 25 µM (inactive)

Q: What about the GI50 (TK-10) of the same molecule?
A: 48.4 µM (inactive)

Q: What about the GI50 (A498) of the same molecule?
A: 31.4 µM (inactive)

Q: And the GI50 (EKVX)?
A: > 100 µM (inactive)

Q: And the GI50 (SF-268)?
A: 29.5 µM (inactive)

Q: What about the GI50 (HOP-18) of the same molecule?
A: 45.2 µM (inactive)

Q: What about the GI50 (NCI-H226) of the same molecule?
A: 33.6 µM (inactive)

Q: What about the GI50 (M14) of the same molecule?
A: > 100 µM (inactive)

Q: What about the GI50 (SF-539) of the same molecule?
A: 14.8 µM (inactive)

Q: And the GI50 (U-251)?
A: 29.6 µM (inactive)

Q: What about the GI50 (HL-60) of the same molecule?
A: 71.6 µM (inactive)

Q: What about the GI50 (MDA-MB-435) of the same molecule?
A: > 100 µM (inactive)

Q: What about the GI50 (UACC-257) of the same molecule?
A: 42.3 µM (inactive)

Q: What about the GI50 (PC-3) of the same molecule?
A: 51.4 µM (inactive)

Q: And the GI50 (COLO 205)?
A: > 100 µM (inactive)

Q: And the GI50 (OVCAR-5)?
A: 61.9 µM (inactive)

Q: And the GI50 (K562)?
A: 36.8 µM (inactive)

Q: And the GI50 (MDA-N)?
A: > 100 µM (inactive)

Q: And the GI50 (OVCAR-3)?
A: 27.9 µM (inactive)

Q: And the GI50 (HT-29)?
A: 47.3 µM (inactive)

Q: What about the GI50 (NCI-H460) of the same molecule?
A: 75.2 µM (inactive)

Q: What about the GI50 (DU-145) of the same molecule?
A: 89.9 µM (inactive)

Q: What about the GI50 (SK-MEL-2) of the same molecule?
A: 73.3 µM (inactive)

Q: And the GI50 (SK-MEL-5)?
A: 54.8 µM (inactive)

Q: What about the GI50 (MOLT-4) of the same molecule?
A: 60.8 µM (inactive)

Q: What about the GI50 (SNB-19) of the same molecule?
A: 29.7 µM (inactive)
